In PMC7162859 (Scientific Reports, 2020):
Where two headings read alike, the source gives them in different places.

Legend:
[1] = FVB wild-type; for Fold increase in Kp: 10 mg/kg i.p. ispinesib with or without 10 mg/kg i.p. elacridar; for increase of brain-to-plasma concentration ratio / brain delivery of ispinesib with elacridar co-administration: 10 mg/kg ip ispinesib + 10 mg/kg elacridar vs ispinesib alone, 2 and 6 hours, 10 mg/kg
Experimental: Blood and brain specimens were harvested at 2 and 6 hours post-dose.
All dosing solutions were prepared on the day of the study. A serial sacrifice (destructive sampling) design was employed for sample collection. In all the pharmacokinetic studies conducted in non-tumor bearing FVB mice, the group size was 4 at each sampling time point (n = 4). At pre-determined time points, mice were euthanized using a carbon dioxide chamber. Blood was collected by cardiac puncture and transferred to sample tubes coated with heparin. The whole brain was isolated from skull and rinsed with ice-cold distilled water, and superficial meninges were removed by blotting with tissue paper. Plasma was separated by centrifugation of blood samples at 3500 rpm and 4°C for 15 minutes. […] All the samples were stored at -80°C, until further analysis. The concentrations of ispinesib in all the samples were analyzed by LC-MS/MS. Assuming a vascular volume of 1.4% in mouse brain ^5, the concentrations in brain were corrected for residual drug in brain vasculature.

PTEN(-/-) GBM cells = experiment: In vitro cytotoxicity assay (CellTiter-Glo, 72 hours); assay type: cell-based, murine; settings: for EC50: Mus musculus, 72 h, 72 hours, read-out: Ispinesib EC50
Experimental: (§1) TP53(−/−) and PTEN(−/−) cells were seeded into 96-well plates (pre-coated with fibronectin) at a density of 5,000 cells per well in DMEM media with 0.5% FBS, 1% nitrogen supplement, 10 ng/ml of FGF and 10 ng/ml of PDGFAA. Human GBM1A cells were seeded into 96 well plates (pre-coated with laminin) in DMEM media with 1% neuroPlex supplement, 20 ng/ml of EGF and 20 ng/ml of […]. After 24 hours (~70% confluency), cells were exposed to ispinesib (n = 10 wells per concentration) from 0.025–1000 nM with or without 500 nM elacridar co-treatment. The plates were incubated for 72 hours, cell viability measured using CellTiter-Glo ATP-based assay, and read on a luminometer. The dose-response data were fit to the Hill equation.
(§2) In vitro potency data was fitted to “log(inhibitor) vs. normalized response - variable slope” equation in GraphPad Prism version 6.04 (GraphPad, La Jolla, CA) to determine half-maximal effective concentration (EC50).

TP53(-/-) GBM cells = experiment: as above; assay type: cell-based, murine; settings: for EC50: Mus musculus, 72 h, 72 hours, read-out: Ispinesib EC50
Experimental: as §1, §2

in vivo = settings: Sprague-Dawley, rat, ip, 10 mg/kg
Experimental: (§3) Blood and brain (tumor-bearing) samples were collected at 2 hours post-dose, and whole brains were immediately flash frozen.
(§4) A fluorescence-guided punch biopsy technique (Supplementary Fig. S2) was developed and employed for isolation of tumor core, tumor rim (brain adjacent to tumor, BAT) and normal (non-tumor) brain regions from brain samples. Briefly, an acrylic adult rat brain matrix (WPI) was used to obtain thick coronal brain sections (1–2 mm thick) through the Td-Tomato labelled tumors. The tumor regions were identified by relative fluorescence signal (Nikon AZ100M microscope), and biospy punches with varying diameters were utilized to isolate tumor core (tumor region with fluorescence signal 5-fold or higher relative to background signal) and rim (region adjacent to tumor core with fluorescence signal 3 to 5-fold higher relative to background) (Supplementary Fig. S3). The samples from individual brains were pooled together for analysis of ispinesib concentrations by LC-MS/MS.
(§5) The tumor-bearing brain samples were harvested at 2 hours post dose (n = 9). Coronal sections that were 1-2 mm thick were obtained using an acrylic brain matrix, and a fluorescence microscopy guided punch biopsy method was utilized for the isolation of tumor core, tumor rim (brain adjacent to tumor, BAT) and normal (non-tumor) brain regions. The tumor core was identified as the tumor region with a fluorescence signal that was 5-fold or higher relative to the background signal. The tumor rim was defined as the region around the tumor core with a fluorescence signal 3 to 5-fold higher relative to the background signal. The brain tissue with a fluorescence signal similar to or lower than the background fluorescence was collected as the normal brain. The samples collected from each brain were pooled together, and ispinesib concentrations were determined using LC-MS/MS.

orthotopic GBM1A tumors [2] = experiment: Pharmacodynamics: monopolar spindle formation in orthotopic GBM1A tumors; assay type: in vivo, NSG mice; settings: single ip dose 10 mg/kg each drug; 8 hours
Experimental: Female NSG mice were intracerebrally injected with 500,000 GBM1A cells at coordinates X = 1.5 mm, Y = 1.5 mm and Z = 2.5 mm relative to the bregma, and tumor growth was monitored by bioluminescence imaging. After 4 weeks (tumor size of about 2 × 10^9 photons/sec), animals were randomized to receive single ip dose of microemulsion vehicle, 10 mg/kg elacridar, 10 mg/kg ispinesib, or a combination of 10 mg/kg ispinesib and 10 mg/kg elacridar (n = 8–10). At 8 hours following treatment, mice were perfused and whole brains were isolated. The samples were processed for immunofluorescence by staining for tubulin with an alpha-tubulin antibody (Cell signaling, Cat#2125) and counter staining with DAPI for visualizing nuclei. Images were scanned and counted for cells with monopolar spindles.

[3] = Rapid equilibrium dialysis for unbound fractions in mouse plasma and brain homogenate; assay type: in vitro ADME; settings: FVB, 37 °C
Experimental: Rapid equilibrium dialysis was used to determine unbound fractions with modifications[48],[49] to manufacturer’s protocol (Thermo Fisher Scientific). Mouse plasma and brain homogenates (in 3 volumes of PBS, w/v) were spiked with 0.1 mg/mL ispinesib to obtain final concentrations of 1 µM. 300 µL of drug-spiked matrices were placed in donor chamber, and 500 µL of PBS was placed in receiver chamber of inserts (8 kDa MWCO), in triplicates. The base plate with inserts was incubated on Bioshaker at 37 °C and 1000 rpm for 4 hours. Ispinesib concentrations in samples were analyzed by liquid-chromatography tandem mass-spectrometry (LC-MS/MS).
The unbound fractions of ispinesib in plasma and brain were determined by using rapid equilibrium dialysis (RED) technique, with some alterations ^1,2 to manufacturer’s protocol (Thermo Fisher Scientific). […] RED experiments were initially conducted at 1, 2, 5 and 10 µM concentrations of ispinesib with 4 and 6 hour time points. […] Consequently, unbound fractions at 1 µM concentration and 4 hr time point were utilized for estimation of Kp,uu and free concentrations of ispinesib. […] The samples collected from the donor and receiver chambers after dialysis for 4 hours were stored at -80°C and analyzed for ispinesib concentrations by LC-MS/MS analysis. […]

orthotopic GBM1A tumors [4] = assay type: in vivo; settings: 10 mg/kg ip each drug once every 4 days for 28 days
Experimental: Female NSG mice were intracranially implanted with 500,000 luciferase expressing GBM1A cells (transduced with lentiviral particles expressing GFP-Luciferase). After 7 days, animals were randomized into four groups and ip administered with microemulsion vehicle, 10 mg/kg elacridar, 10 mg/kg ispinesib, or a combination of 10 mg/kg ispinesib and 10 mg/kg elacridar, once every 4 days for 28 days (n = 10). The dosing schedule of once every 4 days was based on our previously publication with ispinesib. Tumor growth was monitored by bioluminescence imaging and animals were followed for survival.
The progression of tumor growth was monitored by bioluminescence imaging (BLI) using an IVIS system. Mice that underwent stereotactic injection with GFP-luciferase expressing GBM1A cells were imaged twice a week. Ten minutes prior to imaging, mice were intraperitoneally injected with d-luciferin at 75 mg/kg body weight (3 mL/kg injection volume). Animals were immobilized using 1.5% − 3.0% isoflurane provided by nose cones within the imager and were kept warm using a heated stage set at 37 °C during the imaging procedure. Following imaging for about 5 minutes, animals were removed from the IVIS chamber and monitored until they fully recovered from anesthesia.

[5] = Brain distribution after single intraperitoneal dose in FVB wild-type, Bcrp1-/-, Mdr1a/b-/- and Mdr1a/b-/- Bcrp1-/- mice; assay type: in vivo, mouse (FVB); settings: for DA (Distribution advantage) / concentration at 2 h / concentration at 6 h / Kp at 2 h / Kp at 6 h: 10 mg/kg i.p.; for concentration at 2 h / concentration at 6 h / Kp at 2 h / Kp at 6 h: FVB, mouse, 10 mg/kg; for concentration at 2 h / concentration at 6 h: intraperitoneal; for Kp at 2 h / Kp at 6 h: brain/plasma, ip, read-out: Kp brain (Cbrain/Cplasma)
Experimental: At 2 and 6 hours following administration of ispinesib, whole blood and brain samples were harvested, and blood samples were centrifuged for plasma separation. Additional details on the conduct of in vivo pharmacokinetic studies are described in the supplementary methods. The drug concentrations in all samples were measured by a specific and sensitive LC-MS/MS assay for ispinesib.
Kp=CbrainCplasma (Equation 4)
DA= Kp, knockoutKp, wildtype (Equation 5)

[6] = GBM-bearing rats; for Fold increase in Kp over the Kp in normal brain of ispinesib treated group: 10 mg/kg ip, 2 hours; for increase in Kp when elacridar is co-administered with ispinesib: vs ispinesib alone
Experimental: as §3, §4, §5

[7] = 5 mg/kg iv bolus, Mdr1a/b-/- Bcrp1-/- mice

Cc1ccc(C(=O)N(CCCN)[C@@H](c2nc3cc(Cl)ccc3c(=O)n2Cc2ccccc2)C(C)C)cc1 [Ispinesib, N-(3-aminopropyl)-N-[(1 R)-1-(3-benzyl-7-chloro-4-oxoquinazolin-2-yl)-2-methylpropyl]-4-methylbenzamide]
Fold increase in Kp ([1]; 2 hrs): 1
Fold increase in Kp ([1]; 6 hrs): 1
increase of brain-to-plasma concentration ratio / brain delivery of ispinesib with elacridar co-administration [1]: approximately 10 fold
increase of brain-to-plasma concentration ratio / brain delivery of ispinesib with elacridar co-administration ([1]; listed as ispinesb): 10 fold
predicted unbound concentrations in the brain compared with in vitro EC50 against GBM1A (5 mg/kg intravenous, FVB wild-type mice, from in vivo concentrations and fu): appreciably below the EC50
Kp, brain-to-plasma AUC ratio (total drug) [7]: 12.12
Kp,uu, unbound partition coefficient [7]: 1.01
Kp, brain-to-plasma AUC ratio (total drug) (5 mg/kg iv bolus, wild-type mice): 0.23
EC50 (PTEN(-/-) GBM cells; [Elacridar] 0 nM): 10 ± 0.9 nM
EC50 (PTEN(-/-) GBM cells; [Elacridar] 500 nM): 3.3 ± 0.4 nM
Hill Coefficient (PTEN(-/-) GBM cells; [Elacridar] 0 nM): 0.6 ± 0.02
Hill Coefficient (PTEN(-/-) GBM cells; [Elacridar] 500 nM): 0.4 ± 0.01
EC50 (TP53(-/-) GBM cells; [Elacridar] 0 nM): 14.4 ± 1.2 nM
EC50 (TP53(-/-) GBM cells; [Elacridar] 500 nM): 3.9 ± 0.5 nM
Hill Coefficient (TP53(-/-) GBM cells; [Elacridar] 0 nM): 0.6 ± 0.02
Hill Coefficient (TP53(-/-) GBM cells; [Elacridar] 500 nM): 0.4 ± 0.01
Kp at 2 h (in vivo; normal brain): 0.11 ± 0.09
concentration at 2 h (in vivo; normal brain): 60 ± 40 ng/mL
Kp at 2 h (in vivo; tumor core): 0.77 ± 0.55
concentration at 2 h (in vivo; tumor core): 380 ± 240 ng/mL
Kp at 2 h (in vivo; tumor rim): 0.27 ± 0.18
concentration at 2 h (in vivo; tumor rim): 150 ± 110 ng/mL
monopolar spindles in tumor core (tubulin/DNA staining) (orthotopic GBM1A tumors [2]): occasional monopoles
fraction unbound at 4 h, 1 µM ([3]; mouse brain homogenate, corrected for dilution, read-out: percentage of unbound drug in brain): 0.0005 ± 0.0002
fraction unbound at 4 h, 1 µM ([3]; mouse plasma, read-out: percentage of unbound drug in plasma): 0.006 ± 0.001
tumor doubling time (bioluminescence, single exponential fit) (orthotopic GBM1A tumors [4]; days 7–37): 9.4 days
median survival (orthotopic GBM1A tumors [4]; vehicle 61 days): 74 days
DA (Distribution advantage) ([5]; 2 hrs, Bcrp1a/b-/-): 1
DA (Distribution advantage) ([5]; 2 hrs, Mdr1a/b-/-): 3
DA (Distribution advantage) ([5]; 2 hrs, Mdr1a/b-/- Bcrp1a/b-/-): 28
DA (Distribution advantage) ([5]; 2 hrs, Wild-type): 1
DA (Distribution advantage) ([5]; 6 hrs, Bcrp1a/b-/-): 1
DA (Distribution advantage) ([5]; 6 hrs, Mdr1a/b-/-): 10
DA (Distribution advantage) ([5]; 6 hrs, Mdr1a/b-/- Bcrp1a/b-/-): 33
DA (Distribution advantage) ([5]; 6 hrs, Wild-type): 1
concentration at 2 h ([5]; brain, 2 hrs, Bcrp1a/b-/-, read-out: Cbrain): 140 ± 20 ng/mL
concentration at 2 h ([5]; brain, 2 hrs, Mdr1a/b-/- Bcrp1a/b-/-, read-out: Cbrain): 3770 ± 670 ng/mL
concentration at 2 h ([5]; brain, 2 hrs, Mdr1a/b-/-, read-out: Cbrain): 580 ± 140 ng/mL
concentration at 2 h ([5]; brain, 2 hrs, Wild-type, read-out: Cbrain): 180 ± 90 ng/mL
concentration at 6 h ([5]; brain, 6 hrs, Bcrp1a/b-/-, read-out: Cbrain): 150 ± 30 ng/mL
concentration at 6 h ([5]; brain, 6 hrs, Mdr1a/b-/- Bcrp1a/b-/-, read-out: Cbrain): 5590 ± 2850 ng/mL
concentration at 6 h ([5]; brain, 6 hrs, Mdr1a/b-/-, read-out: Cbrain): 1100 ± 100 ng/mL
concentration at 6 h ([5]; brain, 6 hrs, Wild-type, read-out: Cbrain): 140 ± 80 ng/mL
Kp at 2 h ([5]; 2 hrs, Bcrp1a/b-/-): 0.08
Kp at 2 h ([5]; 2 hrs, Mdr1a/b-/- Bcrp1a/b-/-): 3.07
Kp at 2 h ([5]; 2 hrs, Mdr1a/b-/-): 0.35
Kp at 2 h ([5]; 2 hrs, Wild-type): 0.11
Kp at 6 h ([5]; 6 hrs, Bcrp1a/b-/-): 0.15
Kp at 6 h ([5]; 6 hrs, Mdr1a/b-/- Bcrp1a/b-/-): 5.2
Kp at 6 h ([5]; 6 hrs, Mdr1a/b-/-): 1.52
Kp at 6 h ([5]; 6 hrs, Wild-type): 0.16
concentration at 2 h ([5]; plasma, 2 hrs, Bcrp1a/b-/-, read-out: Cplasma): 1740 ± 420 ng/mL
concentration at 2 h ([5]; plasma, 2 hrs, Mdr1a/b-/- Bcrp1a/b-/-, read-out: Cplasma): 1590 ± 1070 ng/mL
concentration at 2 h ([5]; plasma, 2 hrs, Mdr1a/b-/-, read-out: Cplasma): 1750 ± 730 ng/mL
concentration at 2 h ([5]; plasma, 2 hrs, Wild-type, read-out: Cplasma): 1610 ± 720 ng/mL
concentration at 6 h ([5]; plasma, 6 hrs, Bcrp1a/b-/-, read-out: Cplasma): 1060 ± 400 ng/mL
concentration at 6 h ([5]; plasma, 6 hrs, Mdr1a/b-/- Bcrp1a/b-/-, read-out: Cplasma): 1030 ± 210 ng/mL
concentration at 6 h ([5]; plasma, 6 hrs, Mdr1a/b-/-, read-out: Cplasma): 870 ± 540 ng/mL
concentration at 6 h ([5]; plasma, 6 hrs, Wild-type, read-out: Cplasma): 870 ± 540 ng/mL
efflux transporter substrate status ([5]; from brain distribution in transporter-deleted mice): a substrate for P-gp and Bcrp transporters
Fold increase in Kp over the Kp in normal brain of ispinesib treated group ([6]; Normal brain): 1
Fold increase in Kp over the Kp in normal brain of ispinesib treated group ([6]; Tumor core): 7
Fold increase in Kp over the Kp in normal brain of ispinesib treated group ([6]; Tumor rim): 2.5
increase in Kp when elacridar is co-administered with ispinesib ([6]; tumor core): 4 fold
increase in Kp when elacridar is co-administered with ispinesib ([6]; tumor rim and normal brain regions): approximately 10 fold
